assay: Acute toxicity test (limit test and range finding test), oral administration; conditions: both, ICR, mouse, in vivo
Protocol: The limit test and the range finding test were carried out using the SPF mice, as stated below, and LD₅₀ values were determined.
The dead mice are weighed and organ examinations are carried out for macroscopical lesions. Also, on the last day of the test all surviving mice are sacrificed and used for examinations.
If the mortality is more than 50% in the limit test, the range finding test is carried out for 14 days with three doses groups including the putative LD₅₀ value. The method is same as the foregoing limit test.

Structure (SMILES)	LD50 at 14 days
C=C(C)COC(=O)C1=C(C)NC(C)=C(C(=O)OC)C1c1cccc([N+](=O)[O-])c1 (stereo not drawn) [Example 12, 3-methyl 5-(2-methyl-2-propenyl) 2,6-dimethyl-4-(3′-nitrophenyl)-1,4-dihydropyridine-3,5-dicarboxylate]	1000 mg/kg
C=C(C)COC(=O)C1=C(C)NC(C)=C(C(=O)OCCN(C)Cc2ccccc2)C1c1cccc([N+](=O)[O-])c1 (stereo not drawn) [Example 8, 3-β-(N-benzyl-N-methylamino)ethyl 5-(2-methyl-2-propenyl) 2,6-dimethyl-4-(3′-nitrophenyl)-1,4-dihydropyridine-3,5-dicarboxylate]	> 1000 mg/kg
C=CC(C)OC(=O)C1=C(C)NC(C)=C(C(=O)OCCOC)C1c1cccc([N+](=O)[O-])c1 (stereo not drawn) [Example 3, 3-(1-methyl-2-propenyl) 5-(2-methoxyethyl) 2,6-dimethyl-4-(3′-nitrophenyl)-1,4-dihydropyridine-3,5-dicarboxylate]	> 5000 mg/kg
C=CC(C)OC(=O)C1=C(C)NC(C)=C(C(=O)OCCN(C)Cc2ccccc2)C1c1cccc([N+](=O)[O-])c1 (stereo not drawn) [Example 1, 3-β-(N-benzyl-N-methylamino)ethyl 5-(1-methyl-2-propenyl) 2,6-dimethyl-4-(3′-nitrophenyl)-1,4-dihydropyridine-3,5-dicarboxylate]	> 1000 mg/kg
COC(=O)C1=C(C)NC(C)=C(C(=O)OCCN(C)Cc2ccccc2)C1c1cccc([N+](=O)[O-])c1 (stereo not drawn) [Nicardipine, reference compound]	< 700 mg/kg
C=CCOC(=O)C1=C(C)NC(C)=C(C(=O)OCC(=C)C)C1c1cccc([N+](=O)[O-])c1 (stereo not drawn) [Example 13, 3-(2-methyl-2-propenyl) 5-allyl 2,6-dimethyl-4-(3′-nitrophenyl)-1,4-dihydropyridine-3,5-dicarboxylate]	> 5000 mg/kg

Reference: EP0324626A1, “1,4-Dihydropyridine derivatives” (priority 1988, dated 1989)
